PubChem BioAssay (NCI)
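Growth conditions: 96-well plates. Treatment: test compound, 48 hours, 5 concentrations. Analysis: linear interpolation between bracketing concentrations; unreached endpoints set to highest concentration. GI50: concentration for 50% inhibition of growth. TGI: concentration producing complete growth inhibition.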

Assays:
Assay in all cases: NCI tumour cell line growth inhibition, 48 h
[1] = test system: HCC-2998 colon
[2] = test system: UACC-257 melanoma
[3] = test system: RXF 393 renal
[4] = test system: SW-620 colon
[5] = test system: HCT-15 colon
[6] = test system: SK-MEL-5 melanoma
[7] = test system: HS 578T breast
[8] = test system: SR leukemia
[9] = test system: MDA-MB-435
[10] = test system: BT-549 breast
[11] = test system: MDA-MB-231 breast
[12] = test system: CAKI-1 renal
[13] = test system: SK-OV-3 ovarian
[14] = test system: K-562 leukemia
[15] = test system: DU-145 prostate
[16] = test system: COLO 205 colon
[17] = test system: T-47D breast
[18] = test system: U251 CNS
[19] = test system: SK-MEL-2 melanoma
[20] = test system: NCI-H460 lung
[21] = test system: OVCAR-5 ovarian
[22] = test system: MOLT-4 leukemia
[23] = test system: HL-60(TB) leukemia
[24] = test system: SK-MEL-28 melanoma
[25] = test system: LOX IMVI melanoma
[26] = test system: PC-3 prostate
[27] = test system: OVCAR-3 ovarian
[28] = test system: OVCAR-4 ovarian
[29] = test system: A498 renal
[30] = test system: IGROV1 ovarian
[31] = test system: SF-539 CNS
[32] = test system: TK-10 renal
[33] = test system: A549 NSCLC
[34] = test system: NCI/ADR-RES ovarian
[35] = test system: ACHN renal
[36] = test system: SF-295 CNS
[37] = test system: KM12 colon
[38] = test system: HT29 colon
[39] = test system: M14 melanoma
[40] = test system: UO-31 renal
[41] = test system: HOP-62 NSCLC
[42] = test system: SN12C renal
[43] = test system: NCI-H226 lung
[44] = test system: SNB-75 CNS
[45] = test system: UACC-62 melanoma
[46] = test system: MALME-3M melanoma
[47] = test system: HOP-92 NSCLC
[48] = test system: MCF7 breast
[49] = test system: RPMI-8226 leukemia
[50] = test system: NCI-H522 lung

COc1cc(/C=N/Nc2ccnc3cc(Cl)ccc23)cc(OC)c1O
GI50 [1]: 1.73 µM
TGI [1]: 3.23 µM
GI50 [2]: 1.77 µM
TGI [2]: 3.3 µM
GI50 [3]: 1.75 µM
TGI [3]: 3.31 µM
GI50 [4]: 1.69 µM
TGI [4]: 3.66 µM
GI50 [5]: 1.78 µM
TGI [5]: 3.43 µM
GI50 [6]: 1.77 µM
TGI [6]: 3.17 µM
GI50 [7]: 2.03 µM
TGI [7]: 4.44 µM
GI50 [8]: 1.9 µM
TGI [8]: 4.72 µM
GI50 [9]: 1.69 µM
TGI [9]: 3.07 µM
GI50 [10]: 1.75 µM
TGI [10]: 3.27 µM
GI50 [11]: 2.05 µM
TGI [11]: 4.05 µM
GI50 [12]: 1.66 µM
TGI [12]: 3.02 µM
GI50 [13]: 1.72 µM
TGI [13]: 3.14 µM
GI50 [14]: 1.63 µM
TGI [14]: 3.46 µM
GI50 [15]: 1.9 µM
TGI [15]: 3.61 µM
GI50 [16]: 1.86 µM
TGI [16]: 3.42 µM
GI50 [17]: 1.8 µM
TGI [17]: 3.9 µM
GI50 [18]: 1.81 µM
TGI [18]: 3.26 µM
GI50 [19]: 16.3 µM
TGI [19]: 32.8 µM
GI50 [20]: 2.05 µM
TGI [20]: 3.73 µM
GI50 [21]: 1.67 µM
TGI [21]: 3.08 µM
GI50 [22]: 2.36 µM
TGI [22]: 5.71 µM
GI50 [23]: 1.89 µM
TGI [23]: 3.86 µM
GI50 [24]: 1.79 µM
TGI [24]: 3.21 µM
GI50 [25]: 2.15 µM
TGI [25]: 3.65 µM
GI50 [26]: 1.66 µM
TGI [26]: 3.18 µM
GI50 [27]: 2.41 µM
TGI [27]: 5.47 µM
GI50 [28]: 1.85 µM
TGI [28]: 3.63 µM
GI50 [29]: 18.9 µM
TGI [29]: 38.5 µM
GI50 [30]: 1.85 µM
TGI [30]: 3.63 µM
GI50 [31]: 1.75 µM
TGI [31]: 3.16 µM
GI50 [32]: 1.81 µM
TGI [32]: 3.25 µM
GI50 [33]: 1.74 µM
TGI [33]: 3.21 µM
GI50 [34]: 2.13 µM
TGI [34]: 4.51 µM
GI50 [35]: 1.83 µM
TGI [35]: 3.23 µM
GI50 [36]: 1.79 µM
TGI [36]: 3.32 µM
GI50 [37]: 2.39 µM
TGI [37]: 6.05 µM
GI50 [38]: 1.81 µM
TGI [38]: 3.34 µM
GI50 [39]: 1.76 µM
TGI [39]: 3.22 µM
GI50 [40]: 1.69 µM
TGI [40]: 3.12 µM
GI50 [41]: 1.69 µM
TGI [41]: 3.13 µM
GI50 [42]: 1.8 µM
TGI [42]: 3.56 µM
GI50 [43]: 1.79 µM
TGI [43]: 3.67 µM
GI50 [44]: 1.67 µM
TGI [44]: 3.08 µM
GI50 [45]: 1.71 µM
TGI [45]: 3.25 µM
GI50 [46]: 1.87 µM
TGI [46]: 3.44 µM
GI50 [47]: 1.44 µM
TGI [47]: 2.89 µM
GI50 [48]: 1.58 µM
TGI [48]: 3.37 µM
GI50 [49]: 2.18 µM
TGI [49]: 4.78 µM
GI50 [50]: 1.66 µM
TGI [50]: 3.2 µM
